Experimental data published in patent publication US10815274B2, “Immunogenic WT-1 peptides and methods of use thereof” (Memorial Sloan Kettering Cancer Center, priority 2012, dated 2020).
Where a SMILES comes first, the peptide text is derived from it.

Assays:
Details in all cases: 50:1 E:T
[1] = system: WT1 peptide loaded autologous APC; assay: Cr51 release assay, cytotoxic CTL response vs peptide loaded autologous APC; format: cell-based, human
WT1- autologous APC = assay: Cr51 release assay, cytotoxic CTL response vs unmodified autologous APC; format: cell-based, human
[2] = system: WT1+ allo APC with restricting HLA allele loaded with WT1 peptide; assay: Cr51 release assay, cytotoxic CTL response vs peptide loaded allogeneic APC sharing restricting HLA allele (HLA restriction)
[3] = system: WT1- allo APC with restricting HLA allele; assay: Cr51 release assay, cytotoxic CTL response vs unloaded allogeneic APC sharing restricting HLA allele; format: cell-based, human

CC(C)[C@H](NC(=O)[C@@H](NC(=O)[C@H](CO)NC(=O)[C@H](Cc1ccc(O)cc1)NC(=O)CNC(=O)[C@H](CCC(N)=O)NC(=O)[C@@H](N)CC(N)=O)[C@@H](C)O)C(=O)N[C@H](C(=O)N[C@@H](Cc1ccccc1)C(=O)O)[C@@H](C)O [SEQ ID NO: 163] (H-NQGYSTVTF-OH; N-terminus and C-terminus assumed)
Cytotoxic CTL response, % vs WT1 peptide loaded autologous APC ([1]; HLA allele A0101): 19%
Cytotoxic CTL response, % vs WT1- autologous APC (WT1- autologous APC; HLA allele A0101): 2%
Cytotoxic CTL response, % vs WT1+ allo APC with restricting HLA allele loaded with WT1 peptide ([2]; HLA allele A0101): 15%
Cytotoxic CTL response, % vs WT1- allo APC with restricting HLA allele ([3]; HLA allele A0101): 4%

CC(C)C[C@H](NC(=O)[C@@H](N)[C@@H](C)O)C(=O)NCC(=O)N[C@H](C(=O)N[C@@H](C)C(=O)N[C@@H](C)C(=O)NCC(=O)N[C@@H](CO)C(=O)O)C(C)C [SEQ ID NO: 177] (H-TLGVAAGS-OH; N-terminus and C-terminus assumed)
Cytotoxic CTL response, % vs WT1 peptide loaded autologous APC ([1]; HLA allele A6901): 80%
Cytotoxic CTL response, % vs WT1- autologous APC (WT1- autologous APC; HLA allele A6901): 4%
Cytotoxic CTL response, % vs WT1+ allo APC with restricting HLA allele loaded with WT1 peptide ([2]; HLA allele A6901): 57%
Cytotoxic CTL response, % vs WT1- allo APC with restricting HLA allele ([3]; HLA allele A6901): 0%

CC(C)C[C@H](NC(=O)[C@H](CS)NC(=O)[C@H](CO)NC(=O)[C@@H]1CCCN1)C(=O)N[C@@H](CCC(=O)O)C(=O)N[C@@H](CO)C(=O)N[C@@H](CCC(N)=O)C(=O)N1CCC[C@H]1C(=O)N[C@@H](C)C(=O)O [SEQ ID NO: 162] (H-PSCLESQPA-OH; N-terminus and C-terminus assumed)
Cytotoxic CTL response, % vs WT1 peptide loaded autologous APC ([1]; HLA allele B3501): 35%
Cytotoxic CTL response, % vs WT1- autologous APC (WT1- autologous APC; HLA allele B3501): 0%
Cytotoxic CTL response, % vs WT1+ allo APC with restricting HLA allele loaded with WT1 peptide ([2]; HLA allele B3501): 21%
Cytotoxic CTL response, % vs WT1- allo APC with restricting HLA allele ([3]; HLA allele B3501): 0%

CC(C)C[C@H](NC(=O)[C@@H](NC(=O)[C@H](C)NC(=O)CNC(=O)[C@@H](N)CC(C)C)[C@@H](C)O)C(=O)N[C@@H](CCCCN)C(=O)NCC(=O)N[C@H](C(=O)N[C@@H](C)C(=O)N[C@@H](C)C(=O)O)C(C)C [SEQ ID NO: 176] (H-LGATLKGVAA-OH; N-terminus and C-terminus assumed)
Cytotoxic CTL response, % vs WT1 peptide loaded autologous APC ([1]; HLA allele A0203): 35%
Cytotoxic CTL response, % vs WT1- autologous APC (WT1- autologous APC; HLA allele A0203): 0%
Cytotoxic CTL response, % vs WT1+ allo APC with restricting HLA allele loaded with WT1 peptide ([2]; HLA allele A0203): 21%
Cytotoxic CTL response, % vs WT1- allo APC with restricting HLA allele ([3]; HLA allele A0203): 0%

C[C@@H](O)[C@H](NC(=O)[C@H](CS)NC(=O)[C@H](CO)NC(=O)[C@H](CC(=O)O)NC(=O)[C@@H](NC(=O)[C@@H]1CCCN1C(=O)[C@@H](NC(=O)[C@H](Cc1c[nH]cn1)NC(=O)[C@@H](N)CS)[C@@H](C)O)[C@@H](C)O)C(=O)O [SEQ ID NO: 166] (H-CHTPTDSCT-OH)
Cytotoxic CTL response, % vs WT1 peptide loaded autologous APC ([1]; HLA allele B4402): 37%
Cytotoxic CTL response, % vs WT1- autologous APC (WT1- autologous APC; HLA allele B4402): 8%
Cytotoxic CTL response, % vs WT1+ allo APC with restricting HLA allele loaded with WT1 peptide ([2]; HLA allele B4402): 19%
Cytotoxic CTL response, % vs WT1- allo APC with restricting HLA allele ([3]; HLA allele B4402): 7%

CC(C)C[C@H](NC(=O)[C@H](Cc1c[nH]cn1)NC(=O)[C@H](CC(=O)O)NC(=O)[C@H](CO)NC(=O)[C@H](CCCNC(=N)N)NC(=O)[C@H](CO)NC(=O)[C@H](Cc1ccccc1)NC(=O)[C@H](CCCCN)NC(=O)[C@@H](N)CCCNC(=N)N)C(=O)O [SEQ ID NO: 181] (H-RKFSRSDHL-OH; N-terminus and C-terminus assumed)
Cytotoxic CTL response, % vs WT1 peptide loaded autologous APC ([1]; HLA allele A0201): 40%
Cytotoxic CTL response, % vs WT1- autologous APC (WT1- autologous APC; HLA allele A0201): 3%
Cytotoxic CTL response, % vs WT1+ allo APC with restricting HLA allele loaded with WT1 peptide ([2]; HLA allele A0201): 27%
Cytotoxic CTL response, % vs WT1- allo APC with restricting HLA allele ([3]; HLA allele A0201): 1%

CC(C)C[C@H](NC(=O)[C@@H](NC(=O)[C@@H]1CCCN1C(=O)[C@H](C)NC(=O)[C@H](Cc1c[nH]c2ccccc12)NC(=O)[C@H](CCC(N)=O)NC(=O)[C@H](C)NC(=O)[C@H](C)NC(=O)CN)C(C)C)C(=O)O [SEQ ID NO: 154] (H-GAAQWAPVL-OH; N-terminus and C-terminus assumed)
Cytotoxic CTL response, % vs WT1 peptide loaded autologous APC ([1]; HLA allele B3901): 31%
Cytotoxic CTL response, % vs WT1- autologous APC (WT1- autologous APC; HLA allele B3901): 2%
Cytotoxic CTL response, % vs WT1+ allo APC with restricting HLA allele loaded with WT1 peptide ([2]; HLA allele B3901): 19%
Cytotoxic CTL response, % vs WT1- allo APC with restricting HLA allele ([3]; HLA allele B3901): 0%
